Assay: gradient 5% acetonitrile 3 min, to 50% in 2 min, to 85% in 15 min, held 3 min, 100 µL/min
Conditions: column: Zorbax Extend-C18 2.1 x 50 mm; eluents: water / acetonitrile, 0.1% formic acid
In short: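 The mobile phases were water and acetonitrile, each with 0.1% formic acid, pumped at 100 μL/min through a Zorbax Extend-C18 column (2.1 × 50 mm, 1.8 μm). Pure standards were injected as mixtures of ~100 molecules and detected by a quadrupole time-of-flight mass spectrometer in positive and negative ionization mode. Retention time came from computationally picked adduct peaks, each inspected by hand.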

| Structure (SMILES) | RP-LC retention time |
| --- | --- |
| CCS(=O)(=O)Nc1ccc(C2(C(=O)NCC3CCCO3)CCCCC2)cc1 (centres undefined) | 781 s |
| COC(=O)c1ccc2c(c1)N(Cc1cccc(F)c1)C(=O)CS2=O (centres undefined) | 744 s |
| O=S(=O)(Nc1ccc(F)cc1F)c1ccc2c(c1)-c1oncc1CO2 | 873 s |
| O=C(NCc1nc2ccccc2c(=O)n1-c1ccc(F)cc1)Nc1ccc(Cl)c(C(F)(F)F)c1 | 1040 s |
| COC(=O)c1cc2c(=O)n(-c3cccc(Cl)c3)ccc2nc1C | 878 s |
| CCN(CC)C(=O)c1ccc2c(c1)CCCN2S(C)(=O)=O | 748 s |
| CCCn1ccc2oc(C)c(C(=O)N3CCC(N4CCCCC4)CC3)c2c1=O | 590 s |
| COc1cccc(CNC(=O)C2CCCN(c3cc(=O)n(C)c(=O)n3C)C2)c1 (centres undefined) | 670 s |
| Cc1cc(C)c(C(=O)N2CCCC(C(=O)NCCC(C)C)C2)[nH]1 (centres undefined) | 788 s |
| C[C@H](NC(=O)C(C)(C)Oc1ccc(C(F)(F)F)cn1)[C@@H](Cc1ccc(Cl)cc1)c1cccc(C#N)c1 | 1320 s |
| O=S(=O)(c1ccc2nc(N3CCN(c4ccccc4F)CC3)ccc2c1)N1CCCC1 | 998 s |
| CN1CCN(c2nc(C3=C(c4c[nH]c5ccccc45)C(=O)NC3=O)c3ccccc3n2)CC1 | 674 s |
| CCOC(=O)C1=C(CN(C)Cc2ccccc2)NC(=O)NC1c1ccc(F)cc1 (centres undefined) | 663 s |
| CNC(=O)c1cc(-c2cccc(OC)c2)n[nH]1 | 665 s |
| O=C(NCCC1=CCCCC1)C1CCCN(c2nc3ccccc3n(Cc3ccccc3)c2=O)C1 (centres undefined) | 1310 s |
| CCOc1ccccc1NC(=O)Cc1csc2nc(-c3ccccc3)cn12 | 894 s |
| Cc1cccc(C2(O)C(=O)N(Cc3nc(-c4ccccc4)oc3C)c3ccccc32)c1 (centres undefined) | 1120 s |
| Cc1c(C(=O)N2CCOCC2)cnn1-c1cc(-c2nc(C(C)C)no2)ccn1 | 840 s |
| Brc1ccc([C@H]2CN3CCSC3=N2)cc1 | 645 s |
| CCc1nn2c(CNC(=O)c3ccc(F)c(Cl)c3)c(-c3ccccc3)nc2s1 | 1020 s |
| COCCOC1CCN(C(=O)Nc2ccc3c(c2)OCCO3)CC1 | 668 s |
| Cc1ccn2cc(-c3ccc(NC(=O)/C=C/c4ccccc4)cc3)nc2n1 | 673 s |
| Cc1nn(-c2ccccc2)c(C)c1S(=O)(=O)N1CCC(C(=O)NCCN2CCCCCC2)CC1 | 672 s |

| Structure (SMILES) | RP-LC retention time |
| --- | --- |
| CCn1c(=O)sc2cc(S(=O)(=O)N3CCC(C(=O)Nc4ccccn4)CC3)ccc21 | 751 s |
| CCN1c2ccc(F)cc2C(=O)NC12CCN(C(=O)c1ccc(F)cc1)CC2 | 714 s |
| CS(=O)(=O)N1CCC(C(=O)Nc2ccc(F)cc2F)Oc2ccc(Cl)cc21 (centres undefined) | 944 s |
| Cc1ccc(N2CCC(NC(=O)c3ccccc3)C2=O)cc1C (centres undefined) | 862 s |
| Cn1nc(-c2nc(-c3cccc(F)c3)no2)c2c1CCN(C(=O)NC1CCCC1)C2 | 957 s |
| CC(C)N1C(=O)c2cccnc2Sc2cc(NC(=O)Cc3ccccc3Cl)ccc21 | 906 s |
| O=C(CSc1nnc2c3cc(-c4ccc(F)cc4)nn3ccn12)NCc1ccco1 | 787 s |
| Cc1noc(C)c1S(=O)(=O)N1CCC(c2noc(-c3ccncc3)n2)C1 (centres undefined) | 789 s |
| CCOC(=O)CNC(=O)Cn1c(-c2cccnc2)nc2ccccc21 | 608 s |
| COc1ccccc1-c1noc(C2CCCN2C(=O)NCc2ccco2)n1 (centres undefined) | 761 s |
| CCCNC(=O)C1CCN(c2ccc(SCC(=O)Nc3cccc(CC)c3)nn2)CC1 | 674 s |
| Cc1ccc(C(=O)N2CCN(S(=O)(=O)c3cc(-c4noc(C5CCC5)n4)cs3)CC2)s1 | 1060 s |
| O=C(Nc1ccccn1)C1CCCN(c2ncnc3c2nc2n3CCCCC2)C1 (centres undefined) | 675 s |
| COc1ccc(C2(C(=O)N3CC(n4ccnc4C(C)C)C3)CC2)cc1 | 626 s |
| CCCc1nc(-c2cc3ccccc3nc2N2CCN(C)CC2)no1 | 671 s |
| Cc1oc(-c2[nH]ncc2C(=O)N(C)C)cc1S(=O)(=O)N1CCC(C)CC1 | 710 s |
| Cc1nc(C)c(C(=O)N2CCC(n3c(C)cnc3C3CCC3)CC2)s1 | 580 s |
| Cc1oc2c(c1C(=O)Nc1ccccc1Br)C1=NCCN1C=N2 | 628 s |
| Cc1noc(C)c1C1CCCN1C(=O)Cc1ccccc1Cl (centres undefined) | 806 s |
| Cc1ccc(NC(=O)C(C)C2CCN(C(=O)Nc3ccccc3)CC2)cc1 (centres undefined) | 860 s |
| COc1ccc(C)cc1NC(=O)Cn1cnc2nc(N3CCC(C(=O)NC4CC4)CC3)sc2c1=O | 723 s |
| Cc1ccccc1-c1nc2cnccn2c1NCCC(=O)NCc1ccccc1 | 669 s |
| Cc1cc(C)cc(NC(=O)Cc2c(C(=O)O)c(C)cn2C)c1 | 739 s |

| Structure (SMILES) | RP-LC retention time |
| --- | --- |
| CCOc1ccc(-c2nc3ncccn3c2NCc2ccccc2OC)cc1OC | 739 s |
| COc1ccc(Cn2nc3c(S(=O)(=O)N4CCCCCC4)cccn3c2=O)cc1F | 941 s |
| O=C(O)CC(CC(=O)NCc1ccccc1)c1ccc(Br)cc1 (centres undefined) | 712 s |
| CCOC(=O)CSc1nnc2n1CCN2c1ccc(OC)cc1 | 707 s |
| CCC1Oc2ccc(S(=O)(=O)N3CCC(C(=O)N4CCCCCC4)CC3)cc2NC1=O (centres undefined) | 842 s |
| Cc1c(S(=O)(=O)N2CCC(Cc3ccccc3)CC2)c(=O)n(C)c(=O)n1C | 870 s |
| Cc1ccc(S(=O)(=O)N2CCc3c(c(-c4nnc(-c5ccccc5F)o4)nn3C)C2)cc1 | 955 s |
| CN1C(=O)c2cccn2CC1C(=O)NCc1ccco1 (centres undefined) | 613 s |
| COc1cc([C@@H]2c3cc4c(cc3[C@H](O)[C@@H](CO)[C@@H]2C(=O)NC2CCCCC2)OCO4)cc(OC)c1OC | 736 s |
| CCc1noc(NC(C)=O)c1-c1ccc(OC)c(S(=O)(=O)NCc2ccccc2OC)c1 | 791 s |
| CC(C)c1nnc2n1CCN(C(=O)c1ccc(Cl)s1)C2 | 661 s |
| Cc1cccc(NC(=O)c2csc(-c3cn(C)c4ncccc34)n2)c1 | 1040 s |
| Cc1cc(N2CCN(S(=O)(=O)c3cc(F)ccc3C)CC2)nc(N2CCCCC2)n1 | 785 s |
| COCCNC(=O)N1CCCC(C)(C(=O)NCc2ccccc2)C1 (centres undefined) | 639 s |
| Fc1cccc2sc(NCc3ccccn3)nc12 | 594 s |
| CCn1cc(CN2CCC(N3C(=O)C4(CCCC4)C3c3ccccc3)CC2)cn1 (centres undefined) | 673 s |
| Cc1ccc(CN2C[C@@H](CO)[C@H](c3nc(-c4cccnc4)no3)C2)o1 | 596 s |
| O=C(Cc1csc(Nc2cccc(C(F)(F)F)c2)n1)NCc1ccco1 | 636 s |
| CC(=O)OCC1OC(N2CCC(=O)NC2=O)C(OC(C)=O)C1OC(C)=O (centres undefined) | 1040 s |
| CCOC(=O)c1ccc(NC(=O)Nc2c(-c3ccncc3)nc3ccccn23)cc1 | 631 s |
| O=C([C@@H]1C[C@H](F)CN1C(=O)c1ccc(F)cc1)N1CCCCC1 | 684 s |
| COc1ccc(CC(=O)Nc2c(-c3ccc(F)cc3)nc3ccccn23)cc1 | 645 s |
| CCCCn1c(=O)c2ccccc2n(Cc2nc(-c3ccc(CC)cc3)no2)c1=O | 1310 s |

| Structure (SMILES) | RP-LC retention time |
| --- | --- |
| CC(C)(C)c1cc(C(=O)NCc2ccccc2)nc2ccnn12 | 1140 s |
| CCNC(=O)c1cc(C(C)(C)C)[nH]n1 | 647 s |
| CCOCC(=O)N1CCCN(C2=NS(=O)(=O)C(c3ccc(C)cc3)=C2C)CC1 | 752 s |
| Cc1ccc(CNS(=O)(=O)c2cc3c(s2)CCN(C(=O)C2CCC2)C3)cc1 | 943 s |
| COc1cccc(NC(=O)Nc2cc3c(cc2Oc2ccccc2)n(C)c(=O)n3C)c1 | 804 s |
| CC(C)Cn1c(=O)c2ccccc2n(Cc2nc(-c3cccc(C(F)(F)F)c3)no2)c1=O | 1030 s |
| Cc1ccn2cc(-c3ccc(C)c(NS(=O)(=O)c4cc(C)c(C)cc4C)c3)nc2c1 | 759 s |
| Cn1cc(SCC(=O)Nc2cccc(F)c2)c2ccccc21 | 896 s |
| CCc1nnc(NC(=O)c2ccc(-c3ccccc3Cl)o2)s1 | 906 s |
| Brc1ccc(CSc2nnc3ccc(-c4cccnc4)nn23)cc1 | 723 s |
| Cn1nc(C(=O)NC2CCN(c3cc(-c4ccccc4)[nH]n3)CC2)c2ccccc21 | 792 s |
| CCNS(=O)(=O)c1cccnc1Nc1ccc(Cl)cc1 | 1030 s |
| CC(C)CCNC(=O)CN1C(=O)C2CCCCN2c2ccc(C(=O)N(C)C)cc21 (centres undefined) | 745 s |
| CC(C)OC(=O)COC(=O)c1cn(-c2ccc(F)cc2)c(=O)c2ccccc12 | 1090 s |
| Cc1ccc(NC(=O)N2CCC(n3cnc4c(C)cccc4c3=O)CC2)c(C)c1 | 835 s |
| COCC(=O)Oc1c(Sc2ccc(C)cc2)c(C)nn1-c1ccccc1 | 854 s |
| O=C(CCc1nc2ccccc2s1)N1CCC(c2noc(-c3ccccn3)n2)C1 (centres undefined) | 755 s |
| COc1ccc(OC)c(-c2csc(-c3nnn(-c4cccc(Cl)c4)c3N)n2)c1 | 1180 s |
| CCN(CC)C(=O)c1cnc2snc(C)c2c1N1CCC(C(=O)Nc2cc(C)c(Cl)cc2OC)CC1 | 1070 s |
| CCCS(=O)(=O)c1nc2ccc(NS(=O)(=O)c3cccc4nsnc34)cc2s1 | 878 s |
